Test results published in patent publication US5620997A, “Isothiazolones” (Warner-Lambert Company, priority 1995, dated 1997).
Entries after “also recorded” stand apart in the source; their conditions may differ.

Assays:
HIV = experiment: CEM cell assay, anti-HIV activity (XTT, protection from viral cytopathic effects); type: cell-based; conditions: Human immunodeficiency virus 1, CCRF-CEM; Effective concentration which protects cells from viral cytopathic effects
Text: The test systems utilized to establish the cellular antiviral activity of the isothiazolones of Formula I are well recognized in the art and are routinely employed for such purpose. For example, the assay utilized to evaluate the compounds activity against the HIV virus is that employed by the U.S. National Cancer Institute as described by Weislow O. S., et al., J. Natl. Cancer Inst., 1989;81:577-586, incorporated herein by reference.
The procedure is designed to detect agents acting at any stage of the virus reproductive cycle. The assay basically involves the killing of T4 lymphocytes by HIV. Small amounts of HIV are added to cells, and at least two complete cycles of virus reproduction are necessary to obtain the required cell killing. Agents which interact with virions, cells, or virus gene-products to interfere with viral activities will protect cells from cytolysis. The system is automated in several features to accommodate large numbers of candidate agents, and is generally designed to detect anti-HIV activity. However, compounds which degenerate or are rapidly metabolized in the culture conditions may not show activity in this screen.
Yet another test system employed to determine antiviral activity is called the CEM cell assay.
T4 lymphocytes (CEM cell line) are exposed to HIV at a virus to cell ratio approximately 0.05, and plated along with noninfected control cells in 96-well microliter plates.
Candidate agent is dissolved in dimethyl sulfoxide (unless otherwise noted), then diluted 1:200 in cell culture medium. Further dilutions (half-log10) are prepared before adding to an equal volume of medium containing either infected or noninfected cells.
Cultures are incubated at 37° in a 5% carbon dioxide atmosphere for 6 or 7 days. The tetrazolium salt, XTT, is added to all wells, and cultures are incubated to allow formazan color development by viable cells J. National Cancer Institute, 1989;81:577-586. Individual wells are analyzed spectrophotometrically to quantitate formazan production, and in addition are viewed microscopically for detection of viable cells confirmation of protective activity.
Drug-tested virus-infected cells are compared with drug-treated noninfected cells and with other appropriate controls (untreated infected and untreated noninfected cells, drug-contain wells without cells, etc.) on the same plate. Data are reviewed in comparison with other tests done at the same time and a determination about activity is made.

[1] = CEM cell assay, toxicity (growth inhibition); type: cell-based; conditions: human, cem cells; Toxic concentration which inhibits the growth of cells 50% relative to control; read-out: CEM Cell Assay TC50
Protocol: T4 lymphocytes (CEM cell line) are exposed to HIV at a virus to cell ratio approximately 0.05, and plated along with noninfected control cells in 96-well microliter plates. Candidate agent is dissolved in dimethyl sulfoxide (unless otherwise noted), then diluted 1:200 in cell culture medium. Further dilutions (half-log10) are prepared before adding to an equal volume of medium containing either infected or noninfected cells. Cultures are incubated at 37° in a 5% carbon dioxide atmosphere for 6 or 7 days. The tetrazolium salt, XTT, is added to all wells, and cultures are incubated to allow formazan color development by viable cells J. National Cancer Institute, 1989;81:577-586. Individual wells are analyzed spectrophotometrically to quantitate formazan production, and in addition are viewed microscopically for detection of viable cells confirmation of protective activity. Drug-tested virus-infected cells are compared with drug-treated noninfected cells and with other appropriate controls (untreated infected and untreated noninfected cells, drug-contain wells without cells, etc.) on the same plate. Data are reviewed in comparison with other tests done at the same time and a determination about activity is made.

NCp7 = target: T1, NCp7 (Human immunodeficiency virus type 1 (NEW YORK-5 ISOLATE), UniProt P12493); experiment: Electrospray ionization mass spectral analysis of NCp7 with compound; type: binding, HIV-1; conditions: 40 μM NCp7, ammonium acetate buffer pH 6, 320 μM compound, 3 minutes
T1 construct: same protein as the TSQ zinc-ejection assay
Protocol: Electrospray ionization mass spectral analysis was also performed. Using 40 μM NCp7 in ammonium acetate buffer at pH 6, 320 μM 4-(3-oxo-3h-benzo[d]isothiazol-2-yl)benzenesulfonamide (Example 1) in acetonitrile was added. […] In addition, a peak at 6740 corresponding to the NCp7+308+Zn appeared.

[2] = target: T2, HIV-1 Nucleocapsid Protein (NCp7) (Human immunodeficiency virus type 1 group M subtype B, UniProt P12493); experiment: Fluorescence-based (TSQ) assay of zinc ejection from purified HIV-1 NCp7; type: biochemical; conditions: 10 μM compound, 2.8 μM NCp7, 47 μM TSQ, pH 7.4, 26° C., 90 minutes
T2 construct: The NCp7 protein containing 2 Zn-fingers and 2 Zn ions
Text: The compounds of the present invention cause the extrusion of zinc from the nucleocapsid protein (NCp7) of HIV-1. The NC protein is highly conserved among all retroviruses (South T., Blake P., et al., Biochemistry, 1990;;29:7786) and is essential for viral infectivity (Aldovini A. and Young R., J. Virology, 1990;64:1920 and Gorelick R., Nigida S., et al., J. Virology, 1990;64:3207). The zinc is normally held in NC proteins by 1 or 2 zinc fingers. In the case of HIV-1, 2 zinc fingers are present (Summers M., South T., et al., Biochemistry, 1990;29:329) and are involved specifically with the PSI site on viral RNA which controls the packaging of viral RNA. Interference of this packaging causes the formation of non-infectious virions (Dannull J., Surovoy A., et al., EMBO, 1994;13:1525). It has previously been shown that compounds that cause zinc extrusion have potent anti-HIV activity in multiple cell lines and against all retroviruses (Rice W., Schaeffer C., et al., Nature, 1993;361:473).
A fluorescence-based assay has been developed to monitor the ejection of zinc from purified HIV-1 NCp7. The fluorophore, N-(6-methoxy-8-quinolyl)-p-toluenesulfonamide (TSQ), has an increased fluorescent signal upon bonding zinc ion in solution. The NCp7 protein containing 2 Zn-fingers and 2 Zn ions is incubated with drug causing the extrusion of Zn ions. The released Zn is then sequestered by the TSQ and the increased fluorescence monitored relative to control. The assay was performed as follows: 10 μM compound was added to 2.8 μM NCp7 and 47 μM TSQ in 20 μL of pH 7.4 buffer at 26° C. for 90 minutes. Fluorescence (excitation 355 nm emission 400 nm) was monitored versus time. Controls were the NCp7 under assay conditions without drug, and apo NCp7 (no Zn) with drug. The % Zn extrusion was calculated based on the actual fluorescence measured divided by the fluorescence of all theoretical Zn extruded (5.6 μM)×100.
Table 1 below presents the results of testing several of the invention compounds in zinc extrusion assay described above. The compounds were evaluated for their ability to cause the extrusion of zinc from nucleocapsid protein NCp7 (expressed as % relative to control).

Question: For `NS(=O)(=O)c1ccc(-n2sc3ccccc3c2=O)cc1` [Example 1, 4-(3-Oxo-3h-benzo[d]isothiazol-2-yl)-benzenesulfonamide], which EC50 (HIV) is on record?
Answer: The EC50 was 5.1 µM.

Question: What about the CC50 [1] of the same molecule?
Answer: Its CC50 is 21 µM.

Question: And the “Zinc extrusion and covalent adduct formation by electrospray mass spectrometry” value (NCp7)?
Answer: Its value is “a mass peak at 6360 (100%) corresponding to apo NCp7 (loss of 2 Zn) appeared; also recorded: the extrusion of zinc and the formation of a covalent bond between the cysteine of the zinc finger and the isothiazolone”.

Question: What about the “% Zn Extrusion Relative to Control” value [2] of the same molecule?
Answer: Its value is 100%.
